# In patent US11534443B2, “Quinazoline compounds, preparation method, use, and pharmaceutical composition thereof” (INSTITUTE OF MATERIA MEDICA, CHINESE ACADEMY OF MEDICAL …, priority 2016, dated 2022):
# Key:
# PI3Kα = PI3Kα (Homo sapiens (Human), UniProt P42336); test: Biochemical evaluation of activity of PI3Kα (Kinase-Glo luminescence kinase assay); details: 25 μM ATP, 50 μM PIP2, 1 h at room temperature
# Procedure: The potency of compounds in the present intention against PI3Kα was assessed by in vitro kinase assay. The kinase activity of PI3Kα was determined by detecting the level of ADP produced in the kinase reaction with luciferase-based luminescence detection.
# The Kinase-Glo™ Kinase Assay Kit was purchased from Promega. All assays were performed at room temperature using white OptiPlate™-384 well plate. The PI3Kα kinase was purchased from Invitrogen. The substrate was PIP2 from Invitrogen. The kinase buffer contained 50 mM Hepes (pH 7.5), 3 mM MgCl2, 100 mM NaCl, 1 mM EGTA, 0.03% CHAPS and 2 mM DTT. […] The substrate solution contained 100 μM PIP2 and 50 μM ATP. The test compound was diluted to 10 mM in 100% DMSO and serially diluted three times into ten different concentrations in 100% DMSO. The compound diluted in 100% DMSO was diluted 25-fold in 1×kinase buffer. 2.5 μL of the diluted compound solution and 2.5 μL PI3Kα kinase solution were added to each well of a 384-well plate. The reaction was initiated by addition of 5 μL substrate solution to each well. […] The plate was then covered and the reaction was allowed to proceed for one hour at room temperature, followed by the addition of 10 μL Kinase-Glo™ reagent to each well to stop the reaction.
# The percentage of inhibition was calculated as follows: Inhibition %=100−(max−sample RLU)/(max−min)*100
# wherein sample RLU was the luminescence reading for a given compound concentration, min was the reading of DMSO control, and max was the reading of the enzyme-free control. The IC50 value was calculated with the XLfit program in Excel.
# [1] = test system: human lung cancer cell NCI-H460; test: Tumor cell viability by MTT assay; format: cell-based; details: Homo sapiens, NCI-H460, 96 h
# Procedure: After 24 hours, 100 μL of fresh medium containing different concentrations of test compounds and the corresponding solvent control was added into each well to a final concentration of DMSO less than 0.2%. Six to nine concentration groups were set for each test compound, and three parallel wells were set for each group. The plate was incubated at 5% CO2, 37° C. for 96 hours. 20 μL of freshly prepared PBS solution containing 5 mg/mL MTT was added to each well. The supernatant was discarded after incubation for another 4 hours. 150 μL DMSO was added to each well to dissolve the MTT formazan precipitate. After being mixed by a micro-oscillator, the optical density (OD) was measured at the wavelength of 570 nm, and the tumor cells treated with DMSO were used as a control group.
# Chain of PI3Kα (P42336 whole entry): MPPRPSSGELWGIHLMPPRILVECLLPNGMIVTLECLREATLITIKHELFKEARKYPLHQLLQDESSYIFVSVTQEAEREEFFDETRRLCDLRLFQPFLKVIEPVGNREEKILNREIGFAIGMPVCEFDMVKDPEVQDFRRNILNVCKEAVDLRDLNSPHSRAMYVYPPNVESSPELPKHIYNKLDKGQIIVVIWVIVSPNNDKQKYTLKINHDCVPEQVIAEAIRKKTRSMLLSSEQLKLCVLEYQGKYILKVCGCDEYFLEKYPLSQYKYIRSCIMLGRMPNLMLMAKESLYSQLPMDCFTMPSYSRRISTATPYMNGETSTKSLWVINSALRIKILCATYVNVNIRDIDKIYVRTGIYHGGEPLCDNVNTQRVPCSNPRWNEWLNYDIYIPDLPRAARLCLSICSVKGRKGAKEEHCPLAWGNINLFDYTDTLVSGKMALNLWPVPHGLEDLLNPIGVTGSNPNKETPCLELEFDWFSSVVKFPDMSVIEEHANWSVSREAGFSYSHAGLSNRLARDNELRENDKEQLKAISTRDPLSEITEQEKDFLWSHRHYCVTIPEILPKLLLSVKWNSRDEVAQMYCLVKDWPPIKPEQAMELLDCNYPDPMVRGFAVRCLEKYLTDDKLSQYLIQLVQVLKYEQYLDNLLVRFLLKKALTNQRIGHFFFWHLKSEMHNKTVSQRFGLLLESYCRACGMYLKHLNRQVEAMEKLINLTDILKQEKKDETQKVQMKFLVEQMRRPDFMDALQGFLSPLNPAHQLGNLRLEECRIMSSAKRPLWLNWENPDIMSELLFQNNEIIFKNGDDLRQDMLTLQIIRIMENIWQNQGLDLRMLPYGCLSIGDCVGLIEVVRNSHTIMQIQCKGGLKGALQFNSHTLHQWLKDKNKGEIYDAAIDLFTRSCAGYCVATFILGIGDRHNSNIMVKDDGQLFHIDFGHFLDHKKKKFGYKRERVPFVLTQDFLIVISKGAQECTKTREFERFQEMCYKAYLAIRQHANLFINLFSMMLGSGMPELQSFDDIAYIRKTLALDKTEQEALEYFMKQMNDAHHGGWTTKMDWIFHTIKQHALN
# Chain of PI3Kα (P27986 whole entry partner): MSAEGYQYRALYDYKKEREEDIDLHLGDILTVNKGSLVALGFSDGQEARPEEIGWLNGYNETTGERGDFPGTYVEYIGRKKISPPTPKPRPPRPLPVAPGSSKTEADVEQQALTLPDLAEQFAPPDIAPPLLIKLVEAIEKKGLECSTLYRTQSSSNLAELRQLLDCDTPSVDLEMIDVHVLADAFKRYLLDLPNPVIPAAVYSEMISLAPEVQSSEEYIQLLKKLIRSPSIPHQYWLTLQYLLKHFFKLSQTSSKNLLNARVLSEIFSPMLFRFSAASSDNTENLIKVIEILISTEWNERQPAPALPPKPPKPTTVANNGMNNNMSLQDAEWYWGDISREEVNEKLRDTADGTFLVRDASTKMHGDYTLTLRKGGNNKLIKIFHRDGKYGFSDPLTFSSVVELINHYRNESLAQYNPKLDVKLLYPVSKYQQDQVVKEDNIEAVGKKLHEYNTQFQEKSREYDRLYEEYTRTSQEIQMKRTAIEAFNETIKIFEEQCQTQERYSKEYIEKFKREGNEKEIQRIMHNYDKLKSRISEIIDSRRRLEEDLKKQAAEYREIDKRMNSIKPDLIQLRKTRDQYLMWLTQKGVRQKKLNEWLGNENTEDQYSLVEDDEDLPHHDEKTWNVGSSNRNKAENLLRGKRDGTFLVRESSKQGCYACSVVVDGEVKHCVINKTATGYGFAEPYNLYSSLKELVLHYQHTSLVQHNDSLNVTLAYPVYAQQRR
SMILES,IC50 (PI3Kα) [nM],IC50 [1] [nM]
"COc1ncc(-c2cc(OCCN3CCOCC3)c3nc(N)nc(C)c3c2)cc1NS(=O)(=O)c1ccc(F)cc1F [Example 16, N-(5-(2-amino-4-methyl-8-(2-morpholinoethoxy)quinazolin-6-yl)-2-methoxypyridin-3-yl)-2,4-difluorobenzenesulfonamide]",4.1,1100
"COc1ncc(-c2cc(OC3CCC(F)(F)CC3)c3nc(N)nc(C)c3c2)cc1NS(=O)(=O)c1ccc(F)cc1F [Example 17, N-(5-(2-amino-8-((4,4-difluorocyclohexyl)oxy)-4-methylquinazolin-6-yl)-2-methoxypyridin-3-yl)-2,4-difluorobenzenesulfonamide]",2.3,83
"COc1ncc(-c2cc(OC3CCCCC3)c3nc(N)nc(C)c3c2)cc1NS(=O)(=O)c1ccc(F)cc1F [Example 22, N-(5-(2-amino-8-(cyclohexyloxy)-4-methylquinazolin-6-yl)-2-methoxypyridin-3-yl)-2,4-difluorobenzenesulfonamide]",0.6,96
"COCCOc1cc(-c2cnc(OC)c(NS(=O)(=O)c3ccc(F)cc3F)c2)cc2c(C)nc(N)nc12 [Example 25, N-(5-(2-amino-8-(2-methoxyethoxy)-4-methylquinazolin-6-yl)-2-methoxypyridin-3-yl)-2,4-difluorobenzenesulfonamide]",1.6,200
"COc1ncc(-c2cc(OC(C)C)c3nc(N)nc(C)c3c2)cc1NS(=O)(=O)c1ccc(F)cc1F [Example 26, N-(5-(2-amino-8-isopropoxy-4-methylquinazolin-6-yl)-2-methoxypyridin-3-yl)-2,4-difluorobenzenesulfonamide]",0.79,140
"COc1ncc(-c2cc(OCC3CC3)c3nc(N)nc(C)c3c2)cc1NS(=O)(=O)c1ccc(F)cc1F [Example 27, N-(5-(2-amino-8-(cyclopropylmethoxy)-4-methylquinazolin-6-yl)-2-methoxypyridin-3-yl)-2,4-difluorobenzenesulfonamide]",1.7,200
"COc1ncc(-c2cc(OC)c3nc(N)nc(C)c3c2)cc1NS(=O)(=O)c1ccc(F)cc1F [Example 28, N-(5-(2-amino-8-methoxy-4-methylquinazolin-6-yl)-2-methoxypyridin-3-yl)-2,4-difluorobenzenesulfonamide]",1.2,280
"CNc1nc(C)c2cc(-c3cnc(OC)c(NS(=O)(=O)c4ccc(F)cc4F)c3)cc(OC3CCOCC3)c2n1 [Example 29, N-(2-methoxy-5-(4-methyl-2-(methylamino)-8-((tetrahydro-2H-pyran-4-yl)oxy)quinazolin-6-yl)pyridin-3-yl)-2,4-difluorobenzenesulfonamide]",1.1,59
"CCNc1nc(C)c2cc(-c3cnc(OC)c(NS(=O)(=O)c4ccc(F)cc4F)c3)cc(OC3CCOCC3)c2n1 [Example 30, N-(5-(2-(ethylamino)-4-methyl-8-((tetrahydro-2H-pyran-4-yl)oxy)quinazolin-6-yl)-2-methoxypyridin-3-yl)-2,4-difluorobenzenesulfonamide]",1.3,240
"COc1ncc(-c2cc(OC3CCOCC3)c3nc(NCC4CC4)nc(C)c3c2)cc1NS(=O)(=O)c1ccc(F)cc1F [Example 31, N-(5-(2-((cyclopropylmethyl)amino)-4-methyl-8-((tetrahydro-2H-pyran-4-yl)oxy)quinazolin-6-yl)-2-methoxypyridin-3-yl)-2,4-difluorobenzenesulfonamide]",3.8,410

# More lines, now with the values ahead:
IC50 (PI3Kα) [nM],IC50 [1] [nM],SMILES
1.7,100,"CNc1nc(C)c2cc(-c3cnc(OC)c(NS(=O)(=O)c4ccc(F)cc4Cl)c3)cc(O[C@@H]3CCOC3)c2n1 [Example 33, (R)—N-(2-methoxy-5-(4-methyl-2-(methylamino)-8-((tetrahydrofuran-3-yl)oxy)quinazolin-6-yl)pyridin-3-yl)-2-chloro-4-fluorobenzenesulfonamide]"
1.6,110,"CNc1nc(C)c2cc(-c3cnc(OC)c(NS(=O)(=O)c4ccc(Cl)s4)c3)cc(O[C@@H]3CCOC3)c2n1 [Example 34, (R)—N-(2-methoxy-5-(4-methyl-2-(methylamino)-8-((tetrahydrofuran-3-yl)oxy)quinazolin-6-yl)pyridin-3-yl)-5-chlorothiophene-2-sulfonamide]"
2.2,400,"CNc1nc(C)c2cc(-c3cnc(OC)c(NS(=O)(=O)c4ccc(F)cc4F)c3)cc(OCC3CCOCC3)c2n1 [Example 36, N-(2-methoxy-5-(4-methyl-2-(methylamino)-8-((tetrahydro-2H-pyran-4-yl)methoxy)quinazolin-6-yl)pyridin-3-yl)-2,4-difluoro-benzenesulfonamide]"
2.3,250,"CNc1nc(C)c2cc(-c3cnc(OC)c(NS(=O)(=O)c4ccc(F)cc4F)c3)cc(OC3CCOC(C)(C)C3)c2n1 (stereo not drawn) [Example 37, N-(5-(8-((2,2-dimethyltetrahydro-2H-pyran-4-yl)oxy)-4-methyl-2-(methylamino)quinazolin-6-yl)-2-methoxypyridin-3-yl)-2,4-difluorobenzenesulfonamide]"
2.3,310,"CNc1nc(C)c2cc(-c3cnc(OC)c(NS(=O)(=O)c4ccc(F)cc4F)c3)cc(OCC3CCOC3)c2n1 (stereo not drawn) [Example 38, N-(2-methoxy-5-(4-methyl-2-(methylamino)-8-((tetrahydrofuran-3-yl)methoxy)quinazolin-6-yl)pyridin-3-yl)-2,4-difluorobenzenesulfonamide]"
15,1700,"CNc1nc(C)c2cc(-c3cnc(OC)c(NS(=O)(=O)c4ccc(F)cc4F)c3)cc(OC3CCCCC3)c2n1 [Example 39, N-(5-(8-(cyclohexyloxy)-4-methyl-2-(methylamino)quinazolin-6-yl)-2-methoxypyridin-3-yl)-2,4-difluorobenzenesulfonamide]"
1.1,530,"COc1ncc(-c2cc(OC3CCOCC3)c3nc(NC(C)=O)nc(C)c3c2)cc1NS(=O)(=O)c1ccc(F)cc1F [Example 42, N-(6-(5-(2,4-difluorophenylsulfonamido)-6-methoxypyridin-3-yl)-4-methyl-8-((tetrahydro-2H-pyran-4-yl)oxy)quinazolin-2-yl)acetamide]"
10,4000,"COc1ncc(-c2cc(OC3CCOCC3)c3nc(NC(C)=O)nc(C)c3c2)cc1NS(C)(=O)=O [Example 43, N-(6-(6-methoxy-5-(methylsulfonamido)pyridin-3-yl)-4-methyl-8-((tetrahydro-2H-pyran-4-yl)oxy)quinazolin-2-yl)acetamide]"
0.92,45,"COc1ncc(-c2cc(OC3CCOCC3)c3ncnc(C)c3c2)cc1NS(=O)(=O)c1ccc(F)cc1Cl [Example 45, N-(2-methoxy-5-(4-methyl-8-((tetrahydro-2H-pyran-4-yl)oxy)quinazolin-6-yl)pyridin-3-yl)-2-chloro-4-fluorobenzenesulfonamide]"
0.7,29,"COc1ncc(-c2cc(OC3CCOCC3)c3ncnc(C)c3c2)cc1NS(=O)(=O)c1ccc(Cl)s1 [Example 46, N-(2-methoxy-5-(4-methyl-8-((tetrahydro-2H-pyran-4-yl)oxy)quinazolin-6-yl)pyridin-3-yl)-5-chlorothiophene-2-sulfonamide]"
1.4,570,"COc1ncc(-c2cc(OC3CCOCC3)c3ncnc(C)c3c2)cc1NS(C)(=O)=O [Example 47, N-(2-methoxy-5-(4-methyl-8-((tetrahydro-2H-pyran-4-yl)oxy)quinazolin-6-yl)pyridin-3-yl)methanesulfonamide]"
2.1,280,"COc1ncc(-c2cc(OC3CCOCC3)c3ncnc(C)c3c2)cc1NS(=O)(=O)C1CC1 [Example 48, N-(2-methoxy-5-(4-methyl-8-((tetrahydro-2H-pyran-4-yl)oxy)quinazolin-6-yl)pyridin-3-yl)cyclopropanesulfonamide]"
0.76,34,"COc1ncc(-c2cc(O[C@@H]3CCOC3)c3ncnc(C)c3c2)cc1NS(=O)(=O)c1ccc(F)cc1F [Example 49, (R)—N-(2-methoxy-5-(4-methyl-8-((tetrahydrofuran-3-yl)oxy)quinazolin-6-yl)pyridin-3-yl)-2,4-difluorobenzenesulfonamide]"
2.2,790,"COc1ncc(-c2cc(O[C@@H]3CCOC3)c3ncnc(C)c3c2)cc1NS(C)(=O)=O [Example 50, (R)—N-(2-methoxy-5-(4-methyl-8-((tetrahydrofuran-3-yl)oxy)quinazolin-6-yl)pyridin-3-yl)methanesulfonamide]"
